Molecules are shown by their SMILES. Like-named read-outs stand apart in the source and are kept apart here.

One test addresses BCL-XL (Homo sapiens, UniProt Q07817). The test is described as follows: 1D 1H-NMR binding assay. The conditions noted are these: for 1D-^1H NMR: BCL-XL 25 μM, compound 200 μM; for 1D ^1H-NMR Binding Assay (BCL-XL): Table 9. On the set-up: key to 1D-^1H NMR: +++, Very Active; ++, Active; +, Mild; −, Weak. As for the experimental part:
By observing the aliphatic region of the spectra, binding could be readily detected due to chemical shift changes in active site methyl groups of Ile, Leu, Thr, Val or Ala (region between −0.8 and 0.3 ppm). All experiments were performed with a 600 MHz spectrometer Bruker Avance 600 equipped with four rf channels and z-axis pulse-field gradients.

Another test relates to H1299 cell line. The experiment in a line: Cell viability, ATP-LITE assay. In kind it is cell-based, human. The following applies: Homo sapiens. On the procedure: (§1) The activity of the compounds against human cancer cell lines (PC3ML, H460, H1299, RS11846) were assessed by using the ATP-LITE assay (PerkinElmer). All cells were seeded in either F12 or RPMI1640 medium with 5 mM L-glutamine supplemented with 5% fetal bovine serum (Mediatech Inc.), penicillin and streptomycin (Omega). For maintenance, cells were cultured in 5% FBS. Cells plated into 96 well plates at varying initial densities depending on doubling time. H460 and H1299 plated at 2000 cells/well, A549 and PC3 at 3000 cells/well, and RS118456S at 10,000 cells/well. Compounds were diluted to final concentrations with 0.1% DMSO. Prior to dispensing compounds onto cells, fresh 5% media was placed into wells. Administration of compounds occurred 24 hours after seeding into the fresh media. Cell viability was evaluated using ATP-LITE reagent (PerkinElmer) after 72 hours of treatment. Data were normalized to the DMSO control-treated cells using Prism version 5.01 (Graphpad Software).

The subject of test [1] is H460 human lung cell line. The experiment in a line: Cell viability, ATP-LITE assay. It is filed as cell-based. The following applies: Homo sapiens. As for the experimental part:
as §1

For the next test, the system named is PC3ML cells. The experiment in a line: Cell viability, ATP-LITE assay. It is filed as cell-based, human. The conditions noted are these: Homo sapiens, PC3-ML, ATP-LITE assay. On the procedure:
as §1

The subject of test [2] is human lymphoma RS11846 cell line. The experiment in a line: Apoptosis, Annexin V-FITC and propidium iodide assay. It is filed as cell-based. The conditions noted are these: Homo sapiens.
Procedure: The apoptotic activity of the compounds against RS11846 cells was assessed by staining with Annexin V- and propidium iodide (PI). Lymphoma cell line, RS11846, was cultured in RPMI 1640 medium (Mediatech Inc., Herndon, Va. 20171) containing 10% fetal bovine serum (Mediatech Inc., Herndon, Va. 20171) and Penicillin/Streptomycin (Mediatech Inc., Herndon, Va. 20171). […] The percentage of viable cells was determined by FITC-Annexin V- and propidium iodide (PI)-labeling, using an Apoptosis Detection kit (BioVision Inc.), and analyzing stained cells by flow cytometry (FACSort; Bectin-Dickinson, Inc.; Mountain View, Calif.). Cells that were annexin-V-negative and PI-negative were considered viable.
Setting [3] is: NCI-H1299, heading: EC50 H1299, Table 3, ATP-LITE assay, read-out: EC50 H1299.
The mark [4] stands for this setting: Table 3, heading: EC50 PC3ML, read-out: EC50 PC3ML.
Where [5] appears, read: NCI-H460, heading: EC50 H460, Table 3, ATP-LITE assay, read-out: EC50 H460.
Where [6] appears, read: Table 3, Annexin V-FITC and propidium iodide assay, heading: EC50 RS11846, read-out: EC50 RS11846.
[7] abbreviates: NCI-H1299, read-out: EC50 H1299.
The mark [8] stands for this setting: read-out: EC50 RS11846, Table 3, Annexin V-FITC and propidium iodide assay.

Chain of BCL-XL (Q07817 whole entry): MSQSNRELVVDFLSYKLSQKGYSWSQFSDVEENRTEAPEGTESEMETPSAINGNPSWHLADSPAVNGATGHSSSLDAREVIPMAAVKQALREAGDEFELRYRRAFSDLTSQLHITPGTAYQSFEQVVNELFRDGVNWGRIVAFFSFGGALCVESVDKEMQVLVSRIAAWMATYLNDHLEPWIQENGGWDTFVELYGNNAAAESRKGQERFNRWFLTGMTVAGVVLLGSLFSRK

Regarding `Cc1cc2c(C(=O)Nc3ccccc3)c(O)c(O)cc2c(O)c1-c1c(C)cc2c(C(=O)Nc3ccccc3)c(O)c(O)cc2c1O` [Compound 8a, 1,1′,6,6′,7,7′-hexahydroxy-3,3′-dimethyl-N^5,N^5′-diphenyl-2,2′-binaphthyl-5,5′-dicarboxamide], the “1D-^1H NMR” value on BCL-XL (Table 3) is “+”. Further, the concentration for a half-maximal effect (EC50) (usually the concentration needed to bring the measured effect to its halfway point) was found to be 8 µM in the test with H1299 cell line (setting [3]) and 3.5 µM in test [1] (NCI-H460, Table 3, ATP-LITE assay, heading: EC50 H460, read-out: EC50 H460).

Regarding `Cc1cc2c(C(=O)NC3CCCC3)c(O)c(O)cc2c(O)c1-c1c(C)cc2c(C(=O)NC3CCCC3)c(O)c(O)cc2c1O` [Compound 8b, N^5,N^5′-dicyclopentyl-1,1′,6,6′,7,7′-hexahydroxy-3,3′-dimethyl-2,2′-binaphthyl-5,5′-dicarboxamide], the “1D-^1H NMR” value at BCL-XL (Table 3) is recorded as “+”. Further, the EC50 in the test with H1299 cell line (setting [3]) came to 8 µM; in the test on PC3ML cells (setting [4]), 12.2 µM; in test [1] (setting [5]) it was 8.5 µM; in test [2] (setting [6]) it was 13.7 µM.

In the case of `Cc1cc2c(CCC(C)C)c(O)c(O)cc2c(O)c1-c1c(C)cc2c(CCC(C)C)c(O)c(O)cc2c1O` [Compound 12b, 5,5′-diisopentyl-3,3′-dimethyl-2,2′-binaphthyl-1,1′,6,6′,7,7′-hexaol], on BCL-XL (Table 4), the “1D-^1H NMR” value is recorded as “+”.

`Cc1cc2c(C(=O)Nc3ccc(Oc4ccccc4)cc3)c(O)c(O)cc2c(O)c1-c1c(C)cc2c(C(=O)Nc3ccc(Oc4ccccc4)cc3)c(O)c(O)cc2c1O` [Compound 8c, 1,1′,6,6′,7,7′-hexahydroxy-3,3′-dimethyl-N^5,N^5′-bis(4-phenoxyphenyl)-2,2′-binaphthyl-5,5′-dicarboxamide]: the “1D-^1H NMR” value on BCL-XL (Table 3) was “+”. The EC50 was 17 µM with H1299 cell line (setting [3]), 8.5 µM with PC3ML cells (setting [4]), 10.1 µM in test [1] (setting [5]) and 10.8 µM in test [2] (setting [6]).

Turning to `CCC(NC(=O)c1c(O)c(O)cc2c(O)c(-c3c(C)cc4c(C(=O)NC(CC)c5ccccc5)c(O)c(O)cc4c3O)c(C)cc12)c1ccccc1` (stereo not drawn) [Compound 8f, 1,1′,6,6′,7,7′-hexahydroxy-3,3′-dimethyl-N^5,N^5′-bis(1-phenylpropyl)-2,2′-binaphthyl-5,5′-dicarboxamide], the “1D-^1H NMR” value on BCL-XL (Table 3) is on record as “+++”. The results for the EC50 in test [1] (setting [5]) and in test [2] (setting [6]) were 1.5 µM and 4.2 µM, respectively.

`CCC(C)C(=O)c1c(O)c(O)cc2c(O)c(-c3c(C)cc4c(C(=O)C(C)CC)c(O)c(O)cc4c3O)c(C)cc12` (stereo not drawn) [Compound XIX, 1,1′-(1,1′,6,6′,7,7′-hexahydroxy-3,3′-dimethyl-2,2′-binaphthyl-5,5′-diyl)bis(2-methylbutan-1-one)]: the “1D ^1H-NMR Binding Assay (BCL-XL)” value at BCL-XL is recorded as “+”. Also, the concentration for a half-maximal effect (EC50) in test [2] (Table 9, read-out: RS11846 EC50 (Annexin V- and propidium iodide assay)) was found to be 17.1 µM.

Turning to `CCc1cccc(NC(=O)c2c(O)c(O)cc3c(O)c(-c4c(C)cc5c(C(=O)Nc6cccc(CC)c6)c(O)c(O)cc5c4O)c(C)cc23)c1` [Compound 8d, N^5,N^5′-bis(3-ethylphenyl)-1,1′,6,6′,7,7′-hexahydroxy-3,3′-dimethyl-2,2′-binaphthyl-5,5′-dicarboxamide], the “1D-^1H NMR” value on BCL-XL (Table 3) is recorded as “+”. For the same compound, the EC50 with H1299 cell line (setting [3]) came to 5 µM; in the test on PC3ML cells (setting [4]), 8.3 µM; in test [1] (setting [5]), 4.1 µM; in test [2] (setting [6]) it was 4.7 µM.

`Cc1cc2c(C(=O)Nc3cccc(C(F)(F)F)c3)c(O)c(O)cc2c(O)c1-c1c(C)cc2c(C(=O)Nc3cccc(C(F)(F)F)c3)c(O)c(O)cc2c1O` [Compound 8e, 1,1′,6,6′,7,7′-hexahydroxy-3,3′-dimethyl-N^5,N^5′-bis(3-(trifluoromethyl)phenyl)-2,2′-binaphthyl-5,5′-dicarboxamide]: the “1D-^1H NMR” value at BCL-XL (Table 3) is “+”. Besides, the EC50 in the test on H1299 cell line (setting [3]) was 28.7 µM; with PC3ML cells (setting [4]), 12.2 µM; in test [1] (setting [5]), 16.7 µM; in test [2] (setting [6]), 12.6 µM.

Take `Cc1cccc(CNC(=O)c2c(O)c(O)cc3c(O)c(-c4c(C)cc5c(C(=O)NCc6cccc(C)c6)c(O)c(O)cc5c4O)c(C)cc23)c1` [Compound 8h, 1,1′,6,6′,7,7′-hexahydroxy-3,3′-dimethyl-N^5,N^5′-bis(3-methylbenzyl)-2,2′-binaphthyl-5,5′-dicarboxamide]: at BCL-XL (Table 3), the “1D-^1H NMR” value is listed as “+++”. Further, the EC50 with H1299 cell line (setting [3]) is 3.1 µM; with PC3ML cells (Table 3, read-out: EC50 PC3ML), 10.2 µM; in test [1] (setting [5]), 2.9 µM; in test [2] (setting [6]), 4.8 µM.

Take `Cc1cc2c(C(=O)NCc3ccccc3)c(O)c(O)cc2c(O)c1-c1c(C)cc2c(C(=O)NCc3ccccc3)c(O)c(O)cc2c1O` [Compound 8g, N^5,N^5′-dibenzyl-1,1′,6,6′,7,7′-hexahydroxy-3,3′-dimethyl-2,2′-binaphthyl-5,5′-dicarboxamide]: the “1D-^1H NMR” value at BCL-XL (Table 3) is “+”. Also, the EC50 was 3.6 µM with H1299 cell line (setting [7]); 13.7 µM in the test with PC3ML cells (read-out: EC50 PC3ML, Table 3); 4.6 µM in test [1] (NCI-H460, read-out: EC50 H460); 9.3 µM in test [2] (setting [8]).

Turning to `CCCCC(=O)c1c(O)c(O)cc2c(O)c(-c3c(C)cc4c(C(=O)CCCC)c(O)c(O)cc4c3O)c(C)cc12` [Compound XX, 1,1′-(1,1′,6,6′,7,7′-hexahydroxy-3,3′-dimethyl-2,2′-binaphthyl-5,5′-diyl)dipentan-1-one], on BCL-XL, the “1D ^1H-NMR Binding Assay (BCL-XL)” value was “+”. Also, the EC50 in test [2] (read-out: RS11846 EC50 (Annexin V- and propidium iodide assay), Table 9) worked out at 11.7 µM.

For the compound `Cc1cc2c(Cc3ccccc3)c(O)c(O)cc2c(O)c1-c1c(C)cc2c(Cc3ccccc3)c(O)c(O)cc2c1O` [Compound 12d, 5,5′-dibenzyl-3,3′-dimethyl-2,2′-binaphthyl-1,1′,6,6′,7,7′-hexaol], the “1D-^1H NMR” value at BCL-XL (Table 4) is “+”. Besides, the 50% effective concentration (EC50) was 1.28 µM in the test with H1299 cell line (NCI-H1299, ATP-LITE assay, read-out: EC50 H1299); 8.3 µM in the test with PC3ML cells (read-out: EC50 PC3ML); 1.2 µM in test [1] (NCI-H460, ATP-LITE assay, read-out: EC50 H460); 3.2 µM in test [2] (Annexin V-FITC and propidium iodide assay, read-out: EC50 RS11846).

Take `Cc1cc2c(C(=O)NCc3cccc(Cl)c3)c(O)c(O)cc2c(O)c1-c1c(C)cc2c(C(=O)NCc3cccc(Cl)c3)c(O)c(O)cc2c1O` [Compound 8i, N^5,N^5′-bis(3-chlorobenzyl)-1,1′,6,6′,7,7′-hexahydroxy-3,3′-dimethyl-2,2′-binaphthyl-5,5′-dicarboxamide]: the “1D-^1H NMR” value on BCL-XL (Table 3) is “+++”. Further, the EC50 in the test on H1299 cell line (setting [7]) worked out at 5.2 µM; with PC3ML cells (read-out: EC50 PC3ML, Table 3), 8.3 µM; in test [1] (NCI-H460, read-out: EC50 H460), 3.3 µM; in test [2] (setting [8]) it was 7.3 µM.

For the compound `Cc1cc2c(CC(C)C)c(O)c(O)cc2c(O)c1-c1c(C)cc2c(CC(C)C)c(O)c(O)cc2c1O` [Compound 12a, 5,5′-diisobutyl-3,3′-dimethyl-2,2′-binaphthyl-1,1′,6,6′,7,7′-hexaol], the “1D-^1H NMR” value at BCL-XL (Table 4) is “+”.

Regarding `Cc1cc2c(C(=O)NCC3CC3)c(O)c(O)cc2c(O)c1-c1c(C)cc2c(C(=O)NCC3CC3)c(O)c(O)cc2c1O` [Compound 8l, N^5,N^5′-bis(cyclopropylmethyl)-1,1′,6,6′,7,7′-hexahydroxy-3,3′-dimethyl-2,2′-binaphthyl-5,5′-dicarboxamide], at BCL-XL (Table 3), the “1D-^1H NMR” value is “+”. In test [2] (setting [6]), the 50% effective concentration (EC50) was over 10 µM.

Regarding `Cc1cccc(CCNC(=O)c2c(O)c(O)cc3c(O)c(-c4c(C)cc5c(C(=O)NCCc6cccc(C)c6)c(O)c(O)cc5c4O)c(C)cc23)c1` [Compound 8o, 1,1′,6,6′, 7,7′-hexahydroxy-3,3′-dimethyl-N^5,N^5′-bis(3-methylphenethyl)-2,2′-binaphthyl-5,5′-dicarboxamide], the “1D-^1H NMR” value on BCL-XL (Table 3) is reported as “+”. Moreover, the EC50 was 0.7 µM in test [1] (NCI-H460, Table 3, ATP-LITE assay, read-out: EC50 H460) and 5.6 µM in test [2] (setting [6]).

Values taken from patent US8039668B2, “Naphthalene-based inhibitors of anti-apoptotic proteins” (Burnham Institute for Medical Research, priority 2008, dated 2011).
